Like-named read-outs stand apart in the source and are kept apart here.
Experiments:
BCL2 = assay: Western immunoblot analysis of BCL2 protein after miRNA/siRNA transfection; type: cell-based, human; conditions: HCT116, RKO and SW480 cells; 100 nM transfected; 48 h; vs negative control miRNA
Protocol: (§1) HCT116, RKO and SW480 cells were plated in 6-well plates at 2×10^5, 1×10^5 and 1×10^5 per well, respectively. Twenty-four hours after plating, 100 nM of miR-129 precursor (Ambion, Carlsbad, Calif., USA) or siRNA against BCL2 (Dharmacon, Lafayette, Colo., USA) were transfected to the cells with oligofectamine (Invitrogen, Carlsbad, Calif., USA) in accordance with the manufacturer's protocol. Negative miRNA (Ambion) was also transfected as a negative control.
(§2) Forty-eight hours after transfection, cells were lysed with RIPA buffer (Sigma-Aldrich), and Western immunoblotting was performed using standard procedures. The primary antibodies used for the analysis were mouse anti-human BCL2 antibody (1:200; Thermo Fisher Scientific, Fremont, Calif., USA), rabbit anti-human cleaved caspase-3 antibody (1:200; Cell Signaling Technology, Beverly, Mass., USA), rabbit anti-human cleaved caspase-9 antibody (1:200; Cell Signaling Technology), mouse anti-human E2F3 antibody (1:5000; Millipore, Billerica, Mass., USA), mouse anti-human TS antibody (1:400; Millipore), mouse anti-human GAPDH antibody (1:1000, Santa Cruz Biotechnology, Santa Cruz, Calif., USA) or mouse anti-human α-tubulin antibody (1:1000; Millipore). […] HRP activity was detected with SuperSignal West Pico Chemiluminescent Substrate (Thermo Fisher Scientific) and visualized in an UVP Bioimaging system.

[1] = system: HCT116, RKO and SW480 cells; assay: Apoptosis assay (annexin V / propidium iodide, flow cytometry); type: cell-based, human; conditions: all colorectal cancer cell lines tested (HCT116, RKO, SW480); 48 h after transfection; vs negative miRNA
Protocol: as §1
Forty-eight hours after transfection, cells were harvested, stained with propidium iodide and anti annexin-V antibody (Annexin V-FITC Apoptosis Detection kit, BD Biosciences, San Jose, Calif., USA) following the manufacturer's protocol, and stained cells were detected by flow cytometry. The experiments for the apoptosis assay were performed at least three times.

[2] = system: cleaved caspase-3 and cleaved caspase-9; assay: Western immunoblot analysis of cleaved caspases in HCT116 cells; type: cell-based, human; conditions: HCT116 cells with ectopic expression of miR-129
Protocol: as §1, §2

HCT116 cells [3] = assay: Cell proliferation assay (WST-1), HCT116; type: cell-based, human; conditions: day 5
Protocol: as §1
Twenty-four hours after transfection, cells were seeded in 96-well plates at a density of 2000 cells per well. The cell proliferation assay was performed on days 1, 3 and 5 by incubating 10 μl WST-1 (Roche Applied Science, Mannheim, Germany) in the culture medium for 1 h and reading the absorbance at 450 and 630 nm. The cell proliferation rate was calculated by […]. Experiments for the cell proliferation assay were performed at least three times.

HCT116 cells [4] = assay: Cell cycle analysis (flow cytometry), HCT116; type: cell-based, human; conditions: 36 h after transfection
Protocol: as §1
Thirty-six hours after transfection, cells were harvested and resuspended at 0.5 to 1×10^6 cells/m in modified Krishan buffer supplemented with 0.02 mg/ml RNase H (Invitrogen) and 0.05 mg/ml propidium iodide (Sigma-Aldrich, St. Louis, Mo., USA) (See, Krishan A. The Journal of Cell Biology. 1975; 66(1):188-93). Stained cells were detected by flow cytometry and results were analyzed with Modfit LT™ software. The experiments for cell cycle analysis were performed at least three times.

[5] = system: Colon cancer stem cells, i.e., CD133^+HICD44^+HI cells; assay: Colon cancer stem cell tumor xenograft in NOD/SCID mice; type: in vivo
Protocol: FIG. 3. miR-129 suppresses colorectal cancer cell growth and induces cell cycle arrest. (a) HCT116, […] and SW480 cells were transfected with either miR-129 or negative miRNA, and cell numbers were measured with WST-1 assay at days 1, 3 and 5. Cell cycle analysis was performed to determine the impact of miR-129. The representative flow cytometry pattern was shown in (b) and the G1/S and G2/S ratios were shown in (c) (n=3). (d) Colon cancer stem cells, i.e., CD133^+HICD44^+HI cells were subcutaneously injected into NOD/SCID mice (1×10^4 cells). Mice were treated with either (top left) control lentiviral GFP vector and lentiviral miR-129 expressing construct (n=5) or (top right) mice were injected with negative miRNA (n=5) or miR-129 precursor (n=5) at 1.25 nmol per injection. Tumor sizes were then analyzed 7 weeks after initial treatment (lentiviral or injection). […] Scale bar: 1 cm. (bottom left) Quantitative analysis of colon cancer stem cells in tumor xenografts transfected with lentiviral miR-129 or control constructs reveal a significant reduction in tumor size. (bottom right) Quantitative analysis of colon cancer stem cells in tumor xenografts transfected with control and miR-129 precursor RNA.

HCT116 cells [6] = assay: 5-FU treatment and cytotoxicity assay (WST-1); type: cell-based; conditions: 72 hours, read-out: IC50 (50% growth inhibition, WST-1)
Protocol: Twenty-four hours after transfection, HCT116 cells were plated in 96-well plates at 2×10^3 cells per well in triplicates in 100 μl of medium. After 24 hours, fresh medium containing 5-FU alone (ranged from 1 to 4 μM) or miR-129 precursor alone (ranged from 10 nM to 40 nM) or 5-FU and miR-129 together (at a constant ratio 1:10, with increasing concentrations of both compounds) were added, and cells were cultured for an additional 72 hours. Cell viability was measured using the WST-1 assay, and concentration-dependent curves were generated based on the cell viability. The combination index was calculated by CompuSyn software. See, Chou T C et al. (2007).

TS = assay: Western immunoblot analysis of TS protein in HCT116 cells; type: cell-based, human; conditions: HCT116 cells with ectopic expression of miR-129
Protocol: as §1, §2

miR-129: nucleic acid having a sequence of CUUUUUGCGGUCUGGGCUUGC (SEQ ID NO. 1); miR-129 precursor from Ambion used (chemistry not given here; listed as Homo sapiens)
BCL2 protein expression (BCL2): reduced the BCL2 protein expression | apoptosis (proportion of cells annexin V positive and propidium iodide negative) [1]: increased apoptosis significantly | protein levels of cleaved caspase-9 and cleaved caspase-3 [2]: elevated the protein levels | cell proliferation reduced compared to negative controls (HCT116 cells [3]): 41.2% | cell cycle arrest (G1/S and G2/S ratios) (HCT116 cells [4]): reached significance at G2 checkpoint | tumor size ([5]; delivery via lentiviral miR-129 expressing construct vs control lentiviral GFP vector, 7 weeks): reduces tumor size significantly | tumor size ([5]; injection of miR-129 precursor at 1.25 nmol per injection vs negative miRNA, 7 weeks after initial treatment): reduces tumor size significantly | IC50 (HCT116 cells [6]; miR-129 alone): 11.2 nM | IC50 (HCT116 cells [6]; miR-129 when combined with 5-FU (fixed ratio 1:10)): 6.3 nM | TS protein expression (TS): suppressed the protein expression of TS

From patent US10697020B2, “MicroRNA-129 as a biomarker for colorectal cancer” (THE RESEARCH FOUNDATION FOR THE STATE UNIVERSITY OF NEW YORK, priority 2013, dated 2020)
